In US10988478B1, “Pyrazolo[1,5a]pyrimidine derivatives as IRAK4 modulators” (Genentech, Inc., priority 2015, dated 2021):

target: human IRAK4 (Homo sapiens (Human), UniProt Q9NWZ3); test: IRAK4 kinase inhibition, Transcreener fluorescence polarization ADP assay; format: biochemical; conditions: recombinant full-length His6-IRAK4; 125 uM ATP; 90 min; Ki computed using ATP Km 642 uM
Method: Compounds were assayed for inhibition of human IRAK4 and IRAK1 catalytic activity using recombinant enzyme produced from insect cells. Full-length IRAK4 protein, carrying an N-terminal His6-Tag, was obtained from Life Technologies (Carlsbad, Calif., USA). The IRAK1 construct was produced internally and was comprised of IRAK1 residues Arg194 to Ser712, preceded by an NH2-terminal His6 tag and the coding sequence for glutathione-S-transferase.

human IRAK4, sequence (Q9NWZ3 whole entry, the tested form may be a part): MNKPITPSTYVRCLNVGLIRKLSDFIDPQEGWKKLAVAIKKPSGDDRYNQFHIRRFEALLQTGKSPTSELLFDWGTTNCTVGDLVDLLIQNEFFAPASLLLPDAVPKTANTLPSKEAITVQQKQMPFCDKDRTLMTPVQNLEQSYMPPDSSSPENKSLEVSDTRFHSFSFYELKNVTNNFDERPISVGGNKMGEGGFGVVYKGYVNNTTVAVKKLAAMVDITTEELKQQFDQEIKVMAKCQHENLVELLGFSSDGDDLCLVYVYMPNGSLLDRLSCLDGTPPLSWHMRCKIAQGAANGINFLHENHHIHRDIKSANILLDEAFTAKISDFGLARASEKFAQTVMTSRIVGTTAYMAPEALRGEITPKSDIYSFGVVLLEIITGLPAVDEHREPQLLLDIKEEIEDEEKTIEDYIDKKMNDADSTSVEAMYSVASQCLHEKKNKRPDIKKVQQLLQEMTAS

Molecule | Ki
COCC1CN(c2cc3c(cc2NC(=O)c2cnn4cccnc24)CC(C)(C)O3)CCO1 (centres unmarked) [Example 198, N-(6-(2-(methoxymethyl)morpholino)-2,2-dimethyl-2,3-dihydrobenzofuran-5-yl)pyrazolo[1,5-a]pyrimidine-3-carboxamide] | 0.14 µM
CC(C)(O)C(F)(F)CN1Cc2cc(NC(=O)c3cnn4cccnc34)c(N3CCOCC3)cc2C1=O [Example 270, N-[2-(2,2-Difluoro-3-hydroxy-3-methyl-butyl)-6-morpholino-1-oxo-isoindolin-5-yl]pyrazolo[1,5-a]pyrimidine-3-carboxamide] | 0.0097 µM
Cc1cnc2c(C(=O)Nc3cc4c(cc3N3CCOCC3)OC(C)(C(F)F)C4)cnn2c1 (centres unmarked) [Example 144, N-(2-(Difluoromethyl)-2-methyl-6-morpholino-2,3-dihydrobenzofuran-5-yl)-6-methylpyrazolo[1,5-a]pyrimidine-3-carboxamide] | 0.013 µM
CNC(=O)[C@@]1(C)Cc2cc(NC(=O)c3cnn4cccnc34)c(N3CCOCC3)cc2O1 [Example 49, (R)—N-(2-Methyl-2-(methylcarbamoyl)-6-morpholino-2,3-dihydrobenzofuran-5-yl)pyrazolo[1,5-a]pyrimidine-3-carboxamide] | 0.022 µM
CC1(C)Cc2cc(NC(=O)c3cnn4cccnc34)c(N3CCN(CC(=O)N4CCCC4)CC3)cc2O1 [Example 243, N-(2,2-Dimethyl-6-(4-(2-oxo-2-(pyrrolidin-1-yl)ethyl)piperazin-1-yl)-2,3-dihydrobenzofuran-5-yl)pyrazolo[1,5-a]pyrimidine-3-carboxamide] | 0.25 µM
N-[2,2-Dimethyl-6-[(5-methyl-1H-pyrazol-3-yl)methoxy]-3H-benzofuran-5-yl]pyrazolo[1,5-a]pyrimidine-3-carboxamide [Example 543] | 0.14 µM
CC1(C(=O)O)Cc2cc(NC(=O)c3cnn4cccnc34)c(N3CCOCC3)cc2O1 (centres unmarked) [Example 38, 2-Methyl-6-morpholino-5-(pyrazolo[1,5-a]pyrimidine-3-carboxamido)-2,3-dihydrobenzofuran-2-carboxylicacid] | 0.36 µM
O=C(Nc1cc2c(cc1N1CCOCC1)OC(CO)(CO)C2)c1cnn2cccnc12 [Example 394, N-(2,2-bis(hydroxymethyl)-6-morpholino-2,3-dihydrobenzofuran-5-yl)pyrazolo[1,5-a]pyrimidine-3-carboxamide] | 0.075 µM
CC1(C)Cc2cc(NC(=O)c3cnn4cccnc34)c(N3CCC4(CC3)COC4)cc2O1 [Example 114, N-(2,2-Dimethyl-6-(2-oxa-7-azaspiro[3.5]nonan-7-yl)-2,3-dihydrobenzofuran-5-yl)pyrazolo[1,5-a]pyrimidine-3-carboxamide] | 0.017 µM
CC1(C)Cc2cc(NC(=O)c3cnn4cccnc34)c(N3CC4COCC(C3)C4O)cc2O1 (centres unmarked) [Example 237, N-(6-(9-Hydroxy-3-oxa-7-azabicyclo[3.3.1]nonan-7-yl)-2,2-dimethyl-2,3-dihydrobenzofuran-5-yl)pyrazolo[1,5-a]pyrimidine-3-carboxamide] | 0.81 µM
Cc1nc(CN2CCN(c3cc4c(cc3NC(=O)c3cnn5cccnc35)CC(C)(C)O4)CC2)no1 [Example 461, N-(2,2-dimethyl-6-(4-((5-methyl-1,2,4-oxadiazol-3-yl)methyl)piperazin-1-yl)-2,3-dihydrobenzofuran-5-yl)pyrazolo[1,5-a]pyrimidine-3-carboxamide] | 0.029 µM
C[C@]1(CO)Cc2cc(NC(=O)c3cnn4cccnc34)c(OCC(F)F)cc2O1 [Example 311, (R)-N-(6-(2,2-difluoroethoxy)-2-(hydroxymethyl)-2-methyl-2,3-dihydrobenzofuran-5-yl)pyrazolo[1,5-a]pyrimidine-3-carboxamide] | 0.01 µM
CC1(C)Cc2cc(NC(=O)c3cnn4cccnc34)c(N3CCCC3CO)cc2O1 (centres unmarked) [Example 201, N-(6-(2-(hydroxymethyl)pyrrolidin-1-yl)-2,2-dimethyl-2,3-dihydrobenzofuran-5-yl)pyrazolo[1,5-a]pyrimidine-3-carboxamide] | 0.028 µM
C[C@]1(O)COc2cc(N3CCOCC3)c(NC(=O)c3cnn4cccnc34)cc2C1 (single isomer, unassigned) [Example 27] | 0.26 µM
CP(C)(=O)c1ccc(NC(=O)c2cnn3cccnc23)c(N2CCOCC2)c1 [Example 518, N-(4-dimethylphosphoryl-2-morpholino-phenyl)pyrazolo[1,5-a]pyrimidine-3-carboxamide] | 0.13 µM
C[C@]1(CO)Cc2cc(NC(=O)c3cnn4cccnc34)c(N3C[C@H]4C[C@@H]3CO4)cc2O1 [Example 42, N—((R)-6-((1R,4R)-2-Oxa-5-azabicyclo[2.2.1]heptan-5-yl)-2-(hydroxymethyl)-2-methyl-2,3-dihydrobenzofuran-5-yl)pyrazolo[1,5-a]pyrimidine-3-carboxamide] | 0.2 µM
C[C@@]1(O)COc2cc(N3CCOCC3)c(NC(=O)c3cnn4cccnc34)cc2C1 (single isomer, unassigned) [Example 28] | 0.027 µM
CC1(C)Cc2cc(NC(=O)c3cnn4cc(C5CC5)cnc34)c(N3CCOCC3)cc2O1 [Example 61, 6-Cyclopropyl-N-(2,2-dimethyl-6-morpholino-3H-benzofuran-5-yl)pyrazolo[1,5-a]pyrimidine-3-carboxamide] | 0.035 µM

Stronger by Ki, values ahead:

Ki | Molecule
0.0088 µM | CC1(C)Cc2cc(NC(=O)c3cnn4cccnc34)c(N3CCN(CC(O)CO)CC3)cc2O1 (centres unmarked) [Example 469, N-(6-(4-(2,3-dihydroxypropyl)piperazin-1-yl)-2,2-dimethyl-2,3-dihydrobenzofuran-5-yl)pyrazolo[1,5-a]pyrimidine-3-carboxamide]
0.0081 µM | O=C(Nc1cc2c(cc1N1CCOCC1)C(=O)N(C[C@@H]1CCC[C@H]1O)C2)c1cnn2cccnc12 (stereo in doubt) [Example 549, N-[2-[[(1S,2R)-2-hydroxycyclopentyl]methyl]-6-morpholino-1-oxo-isoindolin-5-yl]pyrazolo[1,5-a]pyrimidine-3-carboxamide]
0.0067 µM | Cc1oc(=O)[nH]c1CN1CCN(c2cc3c(cc2NC(=O)c2cnn4cccnc24)CC(C)(C)O3)CC1 [Example 479, N-[2,2-Dimethyl-6-[4-[(5-methyl-2-oxo-3H-oxazol-4-yl)methyl]piperazin-1-yl]-3H-benzofuran-5-yl]pyrazolo[1,5-a]pyrimidine-3-carboxamide]
0.0051 µM | CNC(=O)CC1CCN(c2cc3c(cc2NC(=O)c2cnn4cccnc24)CC(C)(C)O3)CC1 [Example 183, N-[2,2-dimethyl-6-[4-[2-(methylamino)-2-oxo-ethyl]-1-piperidyl]-3H-benzofuran-5-yl]pyrazolo[1,5-a]pyrimidine-3-carboxamide]
0.0042 µM | CC(C)(O)C1CCN(c2cc3c(cc2NC(=O)c2cnn4cccnc24)C[C@@](C)(CO)O3)CC1 [Example 323, N-[(2S)-2-(Hydroxymethyl)-6-[4-(1-hydroxy-1-methyl-ethyl)-1-piperidyl]-2-methyl-3H-benzofuran-5-yl]pyrazolo[1,5-α]pyrimidine-3-carboxamide]
0.0041 µM | C[C@]1(CO)Cc2cc(NC(=O)c3cnn4cc(F)cnc34)c(N3CCN(CC(F)F)CC3)cc2O1 [Example 133, (R)—N-(6-(4-(2,2-Difluoroethyl)piperazin-1-yl)-2-(hydroxymethyl)-2-methyl-2,3-dihydrobenzofuran-5-yl)-6-fluoropyrazolo[1,5-a]pyrimidine-3-carboxamide]
0.004 µM | O=C(Nc1cc2c(cc1N1CCOCC1)C(=O)N(CC1CCCCO1)C2)c1cnn2cccnc12 (single isomer, unassigned) [Example 278, N-(6-morpholino-1-oxo-2-((tetrahydro-2H-pyran-2-yl)methyl)isoindolin-5-yl)pyrazolo[1,5-a]pyrimidine-3-carboxamide]
0.0032 µM | C[C@]1(CO)Cc2cc(NC(=O)c3cnn4cccnc34)c(N3CCC(CO)CC3)cc2O1 [Example 129, (R)—N-(2-(Hydroxymethyl)-6-(4-(hydroxymethyl)piperidin-1-yl)-2-methyl-2,3-dihydrobenzofuran-5-yl)pyrazolo[1,5-a]pyrimidine-3-carboxamide]
0.0028 µM | C[C@]1(CO)Cc2cc(NC(=O)c3cnn4cccnc34)c(N3CCN(CC(F)F)CC3)cc2O1 [Example 98, N-[(2R)-6-[4-(2,2-Difluoroethyl)piperazin-1-yl]-2-(hydroxymethyl)-2-methyl-3H-benzofuran-5-yl]pyrazolo[1,5-a]pyrimidine-3-carboxamide]
0.0022 µM | CC(C)(O)CCN1Cc2cc(NC(=O)c3cnn4cccnc34)c(N3CCOCC3)cc2C1=O [Example 175, N-[2-(3-hydroxy-3-methyl-butyl)-6-morpholino-1-oxo-isoindolin-5-yl]pyrazolo[1,5-a]pyrimidine-3-carboxamide]
0.002 µM | CC1(C)Cc2cc(NC(=O)c3cnn4cccnc34)c(N3CCC(F)(C(N)=O)CC3)cc2O1 [Example 534, N-[6-(4-carbamoyl-4-fluoro-1-piperidyl)-2,2-dimethyl-3H-benzofuran-5-yl]pyrazolo[1,5-a]pyrimidine-3-carboxamide]
0.0019 µM | C[C@@]1(CO)Cc2cc(NC(=O)c3cnn4cccnc34)c(N3CCC(F)(CO)CC3)cc2O1 (single isomer, unassigned) [Example 45]
0.0015 µM | CC1(C)Cc2cc(NC(=O)c3cnn4cccnc34)c(N3CCC(CO)CC3)cc2O1 [Example 4, N-(6-(4-(Hydroxymethyl)piperidin-1-yl)-2,2-dimethyl-2,3-dihydrobenzofuran-5-yl)pyrazolo[1,5-a]pyrimidine-3-carboxamide]
0.0015 µM | CC(C)(O)[C@H](F)CN1Cc2cc(NC(=O)c3cnn4cc(Br)cnc34)c(N3CCOCC3)cc2C1=O [Example 269, 6-bromo-N-[2-[(2R)-2-fluoro-3-hydroxy-3-methyl-butyl]-6-morpholino-1-oxo-isoindolin-5-yl]pyrazolo[1,5-a]pyrimidine-3-carboxamide]
